Assay [1] has as its system Salmonella typhimurium (ATCC 14028). Briefly: In vitro inhibition test against bacteria, Table 7. In kind it is cell-based. The arrangement: key to Inhibitory Activity (stopping power thoroughness and lasting effect): +++ = best; (−) = worst. To be noted: B diluted by 1000 times. As for the experimental part: (§1) An ectoparasiticide veterinary composition of Example 1 (labelled here as PST22) was tested in an in vitro experimental laboratory to test its efficacy against conventional antibiotics used to control harmful bacteria and fungus that cause untold harm in modern poultry producers. Leading world authorities including the World Health Organisation (WHO) have graded Antimicrobial Resistance (AMR) as a serious global health issue that threatens the prevention and treatment of an increasing range of infections.

Assay [2] relates to Escherichia coli (ATCC25322). Briefly: In vitro inhibition test against bacteria, Table 5. In kind it is cell-based. The arrangement: key to Inhibitory Activity (stopping power thoroughness and lasting effect): +++ = best; (−) = worst. To be noted: B diluted by 1000 times. As for the experimental part:
as §1

The subject of assay [3] is Pseudomonas aeruginosa (ATCC 27853). The assay can be described thus: In vitro inhibition test against bacteria, Table 8. The arrangement: key to Inhibitory Activity (stopping power thoroughness and lasting effect): +++ = best; (−) = worst. To be noted: B diluted by 1000 times. In kind it is cell-based. The procedure:
as §1

In assay [4] the test system is Aspergillus niger (ITDI Ref. No. 3008). Briefly: In vitro inhibition test against fungi, Table 10. In kind it is cell-based. Also on record: key to Inhibitory Activity (stopping power thoroughness and lasting effect): +++ = best; (−) = worst. The procedure: (§2) An ectoparasiticide veterinary composition of Example 1 (labelled here as PST22) was tested in an in vitro experimental laboratory to test its efficacy against conventional antibiotics used to control harmful bacteria and fungus that cause untold harm in modern poultry producers.

Assay [5] relates to Saccharomyces cerevisiae (ATCC 9763). Briefly: In vitro inhibition test against fungi, Table 9. In kind it is cell-based. Also on record: key to Inhibitory Activity (stopping power thoroughness and lasting effect): +++ = best; (−) = worst. The procedure:
as §2

Assay [6] has as its system Staphylococcus aureus (ATCC 6538P). The assay can be described thus: In vitro inhibition test against bacteria, Table 6. Format: cell-based. The arrangement: key to Inhibitory Activity (stopping power thoroughness and lasting effect): +++ = best; (−) = worst. The conditions noted are these: B diluted by 1000 times. As for the experimental part: as §1
A short description of assay [7]: Average live weight and feed conversion of broiler birds, trial house vs control house (Example 4). Format: in vivo. To be noted: at 28 days, trial house 1 ml per 1 litre drinking water 6 hours daily, control house antibiotics. The procedure:
Two poultry houses were used in the trial: a “trial house” and a “control house”. Each house contained 37000 broiler birds.
In the trial house, the ectoparasiticide veterinary composition of Example 1 was administered each afternoon continuously for 6 hours at a dosage of 1 ml per 1 litre of clean drinking water. The control house used the farm's standard medication program involving the administration of antibiotics (Fosfomycin and enrofloxacin).
Average live weight of the birds in each house was recorded weekly for a 28 day period. At the end of the trial a feed conversion ration was identified.

Assay [8] concerns red mite. Briefly: Weekly mortality in broiler houses with red mite, trial house vs control house (Example 3). The conditions noted are these: poultry, over the 28 day period; trial house 4 ml per 10 litres water, control house standard antibiotics. Format: in vivo, Dermanyssus gallinae.
Experimental: Two broiler houses of poultry were used in the trial, a first “trial house” and a second “control house”. Mortality was recorded weekly to determine the red mite impact on the poultry.
In the trial house, the ectoparasiticide veterinary composition of Example 1 was administered to chickens via the in-line water system at a dose of 4 ml per 10 litres of clean water. The control house used the farm's standard medication program involving the administration of antibiotics (Fosfomycin and enrofloxacin). Flock performance monitoring (measuring the number of mortalities not including the standard cull numbers) was recorded weekly in each house over a 28 day period.
The mark [9] stands for this setting: A undiluted (10 mm), Amikacin 30 ug (8 mm).
[10] abbreviates: A undiluted (10 mm), Amikacin 30 ug (6 mm).
[11] abbreviates: A pure (10 mm), B 1 ml/L (10 mm), Clotrimazole (10 mm).
Setting [12] is: PST22 - B 1 ml/L (10 mm), Nystatin (10 mm).
Setting [13] is: A undiluted (10 mm), Oxacillin 1 ug (6 mm).

Regarding `NCC[C@H](O)C(=O)N[C@@H]1C[C@H](N)[C@@H](O[C@H]2O[C@H](CN)[C@@H](O)[C@H](O)[C@H]2O)[C@H](O)[C@H]1O[C@H]1O[C@H](CO)[C@@H](O)[C@H](N)[C@H]1O` [Amikacin], the “Average of 3× trials Reactivity Killing Power” value in assay [1] (setting [9]) turned out to be 16.30 mm; in assay [2] (setting [10]), 16.24 mm; in assay [3] (setting [9]), 17.33 mm. Moreover, the “Trial 1” value in assay [1] (setting [9]) came out at 16.12 mm; in assay [2] (setting [10]), 16.20 mm; in assay [3] (setting [9]), 17.89 mm. The “Trial 2” value is listed as 16.26 mm in assay [1] (setting [9]), 16.39 mm in assay [2] (setting [10]) and 17.08 mm in assay [3] (setting [9]). The results for the “Trial 3” value in assay [1] (setting [9]), in assay [2] (setting [10]) and in assay [3] (setting [9]) were 16.52 mm, 16.12 mm and 17.02 mm, respectively. Further, the “Inhibitory Activity (stopping power thoroughness and lasting effect)” value (“Inhibitory Activity” for short) is “+++” in assay [1] (A undiluted, Amikacin 30 ug); “+++” in assay [2] (A undiluted, Amikacin 30 ug); “+++” in assay [3] (A undiluted, Amikacin 30 ug).

`Clc1ccccc1C(c1ccccc1)(c1ccccc1)n1ccnc1` [Clotrimazole]: in assay [4] (setting [11]), the “Average of 3× trials (larger the better) Reactivity killing power” value stood at 16.06 mm, the “Trial 1” value turned out to be 15.80 mm, the “Trial 2” value is 16.20 mm and the “Trial 3” value stood at 16.18 mm. In addition, the “Inhibitory Activity” value in assay [4] (A pure, B 1 ml/L, Clotrimazole) is on record as “+++”.

As for `C[C@@H]1[C@H](O)[C@@H](C)/C=C/C=C/CC/C=C/C=C/C=C/C=C/C(O[C@H]2O[C@H](C)[C@@H](O)[C@H](N)[C@@H]2O)CC2O[C@](O)(CC(O)C(O)CCC(O)CC(O)CC(O)CC(=O)O[C@H]1C)CC(O)C2C(=O)O` (stereo partly drawn) [Nystatin], in assay [5] (setting [12]), the “Average of 3× trials Reactivity Killing Power” value is given as 4 mm, the “Total Mean Zone of Inhibition” value came to 21.58 mm, the “Trail 2” value is reported as 21.30 mm and the “Trial 1” value was 21.28 mm. In addition, the “Trial 3” value in assay [5] (setting [12]) stood at 22.17 mm. Further, the “Inhibitory Activity” value in assay [5] (PST22 - B 1 ml/L, Nystatin) is on record as “+++”.

In the case of `Cc1onc(-c2ccccc2)c1C(=O)N[C@@H]1C(=O)N2[C@@H]1SC(C)(C)[C@@H]2C(=O)O` [Oxacillin], in assay [6] (setting [13]), the “Average of 3× trials Reactivity Killing Power” value was found to be 21.25 mm, the “Trial 1” value worked out at 22.82 mm, the “Trial 2” value is 20.20 mm and the “Trial 3” value is given as 20.72 mm. In addition, the “Inhibitory Activity” value in assay [6] (A undiluted, Oxacillin 1 ug) is given as “+++”.

Fosfomycin and enrofloxacin: the “final average live weight” value in assay [7] was 1370 g. Also, in assay [8], the mortality % was 5%.

The values are drawn from patent publication US20230263853A1, “ECTOPARASITICIDE VETERINARY COMPOSITION” (priority 2020, published 2023).
